Details: rat, in vivo, po

## COc1ccc2c(c1)c(CC(=O)O)c(C)n2C(=O)c1ccc(Cl)cc1 [Indomethacin]
  Therapeutical index LD50/ED50 (B): 8.9

Reference: US4200631A, “Treating mammalian subject sensitive to indomethacin ulcerogenisis” (priority 1978, dated 1980)
